Assays:
Assay in all cases: relative viability (nuclei count vs DMSO), 5 days (fraction); higher = more cells survive
[1] = compound: COC1=CC=C(C=C1)CN2C=CC3=C2C=C(C=C3)C(=O)NO
How it was run: (§1)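 Following overnight incubation at 37 °C, lung cancer cell lines in 1536-well plates were pinned with five library-drug doses (not always all listed) in √10 steps on vehicle-anchored plates. The cells then spent 5 days without medium change before a combined fix, permeabilisation and Hoechst stain, 4× imaging and MetaXpress nuclear counts. Viability is the treated-to-vehicle ratio of nuclei, taken as the median across plates. Only plates with control CV below 25% and at least one doubling passed.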

Veliparib = compound: C[C@]1(c2nc3c(C(N)=O)cccc3[nH]2)CCCN1 [Veliparib]
How it was run: as §1

Veliparib + Bortezomib = compound: C[C@]1(c2nc3c(C(N)=O)cccc3[nH]2)CCCN1 [Veliparib] + CC(C)C[C@H](NC(=O)[C@H](Cc1ccccc1)NC(=O)c1cnccn1)B(O)O [Bortezomib] (partner 0.002 µM)
How it was run: (§2)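 Relative viability is defined as nuclei in treated wells over nuclei in vehicle wells. Duplicate plates were run and medians reported. Lung cancer cell lines in 1536-well plates were dosed by pin tool one day after seeding, with one drug or with a fixed anchor-drug dose plus five library-drug doses (not always all listed) in √10 steps, and nuclei were counted after 5 days.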

[2] = compound: COC1=CC=C(C=C1)CN2C=CC3=C2C=C(C=C3)C(=O)NO + Cc1nc(NC(=O)N2CCC[C@H]2C(N)=O)sc1-c1ccnc(C(C)(C)C(F)(F)F)c1 [Alpelisib] (partner 2 µM)
How it was run: as §2

Cell Line	relative viability ([1]; 0.08 µM)	relative viability ([1]; 0.253 µM)	relative viability ([1]; 0.8 µM)	relative viability ([1]; 2.53 µM)	relative viability ([1]; 8 µM)	relative viability (Veliparib; 0.02 µM)	relative viability (Veliparib; 0.06325 µM)	relative viability (Veliparib; 0.2 µM)	relative viability (Veliparib; 0.6325 µM)	relative viability (Veliparib; 2 µM)	relative viability (Veliparib + Bortezomib; first compound 0.02 µM)	relative viability (Veliparib + Bortezomib; first compound 0.06325 µM)	relative viability (Veliparib + Bortezomib; first compound 0.2 µM)	relative viability (Veliparib + Bortezomib; first compound 0.6325 µM)	relative viability (Veliparib + Bortezomib; first compound 2 µM)	relative viability ([2]; first compound 0.08 µM)	relative viability ([2]; first compound 0.253 µM)	relative viability ([2]; first compound 0.8 µM)	relative viability ([2]; first compound 2.53 µM)	relative viability ([2]; first compound 8 µM)
NCI-H2023	0.908	1.02	1.02	0.949	0.87	0.853	0.939	0.919	0.85	0.928	0.505	0.913	0.937	0.965	0.924	0.58	0.646	0.507	0.586	0.639
EMC-BAC-2	0.88	–	1.08	0.979	0.873	1.01	0.786	1.09	1.11	0.965	1.11	1.03	1.07	1.05	1.09	0.633	0.749	0.799	0.77	0.71
H3255	0.992	0.957	0.948	0.968	0.842	0.919	0.92	0.962	0.951	0.992	0.729	0.835	0.737	0.827	1.02	0.629	0.722	0.679	0.717	0.621
SK-LU-1	0.974	0.997	1.02	1.04	0.966	1.04	1.06	1.06	0.98	1.01	1.51	1.03	0.984	1.36	0.589	1.01	1.04	1.11	1.11	0.81
BEN	1.03	0.986	0.936	0.976	0.856	0.833	0.873	0.987	0.86	0.87	0.676	0.739	0.827	0.87	0.78	0.972	1.07	1.06	0.967	0.929
NCI-H727	0.853	0.941	0.899	0.983	0.927	0.941	0.913	1.06	0.897	1	0.381	0.754	0.755	0.82	0.815	0.525	0.515	0.626	0.654	0.562
NCI-H1755	0.869	1.03	0.965	0.993	0.973	1.02	0.957	1.02	0.913	0.963	0.888	0.892	0.924	0.954	0.868	0.819	0.964	0.913	0.995	0.928
NCI-H322M	–	0.948	1.06	0.925	0.931	–	0.872	1.07	0.963	0.903	1.25	1.15	1.26	1.07	1.17	–	0.726	0.769	0.845	0.656
NCI-H647	0.754	0.909	1.02	0.989	0.869	1.02	0.945	1.03	0.813	1.03	1.23	1	0.847	0.985	0.965	0.981	1.23	1.16	1.21	0.954
LXF-289	–	1.01	1	0.992	0.992	0.996	0.992	1.03	0.941	1	0.997	0.975	1	0.959	1.02	0.394	1.03	1.12	1.05	1.01
HCC-827	1.06	0.935	0.997	1.03	0.97	0.986	1.03	1	0.977	1.07	1.02	0.914	1.01	1.13	1.13	0.975	0.947	1.01	0.995	0.969
NCI-H1734	–	0.957	1.16	1.02	0.73	0.82	0.857	0.957	0.858	0.997	0.911	0.779	0.904	0.827	1.01	–	0.676	0.717	0.622	0.689
NCI-H2087	0.913	1	1.19	0.935	0.85	0.854	0.97	0.936	0.955	1.05	0.563	0.819	0.81	0.709	0.838	1.08	1.08	1.21	1.13	0.864
LCLC-103H	1.03	1.01	1.01	0.984	0.973	1	0.893	0.999	1.01	0.969	0.822	0.963	1.01	1.05	0.933	0.998	0.992	0.954	1.03	0.855
NCI-H1299	1.01	1.04	1.03	1.02	0.99	0.993	1	1.01	0.968	1.02	1.04	0.979	1.02	1.03	1	1.09	1.05	1.05	1.08	1.04
RERF-LC-KJ	0.956	1.03	0.984	1.03	0.969	0.964	0.939	1.01	0.938	1.01	1.07	0.928	1.15	1.02	1.05	0.765	0.796	0.83	0.95	0.83

Cell Line	relative viability ([1]; 0.08 µM)	relative viability ([1]; 0.253 µM)	relative viability ([1]; 0.8 µM)	relative viability ([1]; 2.53 µM)	relative viability ([1]; 8 µM)	relative viability (Veliparib; 0.02 µM)	relative viability (Veliparib; 0.06325 µM)	relative viability (Veliparib; 0.2 µM)	relative viability (Veliparib; 0.6325 µM)	relative viability (Veliparib; 2 µM)	relative viability (Veliparib + Bortezomib; first compound 0.02 µM)	relative viability (Veliparib + Bortezomib; first compound 0.06325 µM)	relative viability (Veliparib + Bortezomib; first compound 0.2 µM)	relative viability (Veliparib + Bortezomib; first compound 0.6325 µM)	relative viability (Veliparib + Bortezomib; first compound 2 µM)	relative viability ([2]; first compound 0.08 µM)	relative viability ([2]; first compound 0.253 µM)	relative viability ([2]; first compound 0.8 µM)	relative viability ([2]; first compound 2.53 µM)	relative viability ([2]; first compound 8 µM)
PC-3 [JPC-3]	1	1.03	1.11	1.08	0.968	1	0.968	1.05	1.04	1.06	0.821	0.789	0.85	0.815	0.785	1.02	1.02	1.01	1.13	1.02
EKVX	0.782	1.02	0.991	1.05	0.957	0.744	0.93	0.94	1	0.972	0.806	0.893	0.888	0.978	1.16	0.749	0.856	0.878	0.91	0.897
NCI-H520	0.708	1.04	1.03	1.04	0.97	0.977	0.975	0.97	0.87	0.993	0.532	0.67	0.791	0.608	0.643	0.43	1.16	0.887	0.904	0.853
NCI-H1355	0.814	0.996	0.987	0.995	0.874	–	0.835	1.03	0.943	0.944	–	0.707	1.23	1.09	1.15	0.793	0.892	0.905	0.883	0.901
NCI-H2228	1.06	1.05	0.996	1.07	0.851	0.909	1.08	1.15	0.954	0.932	0.924	0.844	1	0.843	0.999	0.764	0.659	0.773	0.893	0.741
NCI-H441	0.997	1.03	1.18	1.04	0.867	1.09	0.967	0.982	0.772	0.884	0.472	0.293	0.533	0.365	0.401	0.711	0.8	0.644	0.917	0.554
EBC-1	0.71	0.931	1.04	0.987	0.923	1.05	0.93	0.983	0.915	1	0.615	0.539	0.527	0.479	0.57	0.817	0.842	0.848	0.815	0.737
NCI-H661	–	0.981	0.96	0.958	0.892	0.963	0.918	0.945	0.929	1	0.635	0.877	0.767	0.731	0.777	–	0.464	0.595	0.512	0.626
NCI-H1666	0.891	0.99	1.09	1.03	1.03	0.943	0.976	0.981	0.876	0.937	0.879	0.599	0.81	0.666	0.875	1.07	1.04	1.01	1.04	1.36
NCI-H2347	0.911	1.06	1.1	1.17	0.974	1.08	0.936	0.94	0.971	0.898	1.13	0.687	1.09	1.21	0.959	0.763	1.14	1.03	1.18	1.01
HCC-366	0.791	0.993	0.973	0.964	1.01	1.03	0.992	1	1.01	1.03	1.06	1.05	1.01	1.07	1.07	–	0.435	0.384	0.587	0.406
NCI-H2009	0.926	0.978	1.01	0.993	0.913	0.918	0.922	0.972	0.931	1.1	0.299	0.869	0.808	0.919	1.15	1.15	1.17	1.05	1.24	1.09
NCI-H460	0.902	1	0.994	0.992	0.968	0.93	0.952	0.967	0.931	0.964	–	0.952	1.01	1.07	1.09	0.36	0.535	0.506	0.359	0.338
NCI-H2085	1.01	0.991	1.04	0.996	0.968	0.851	0.999	0.983	0.922	1.01	0.655	0.915	0.898	1.07	0.862	0.968	0.981	1.1	0.969	1.02
NCI-H596	0.962	1.1	1.08	0.989	0.947	0.932	0.933	0.966	0.93	0.908	1.14	1	1.06	1.11	0.902	0.532	0.53	0.384	0.561	0.474
HCC-15	0.883	0.965	1.11	1.01	0.935	0.89	0.952	1.04	0.985	1.05	0.781	1.02	0.991	0.932	0.984	0.74	0.989	0.898	0.93	0.853
